In the experiment the target is Recombinant MAPKAPK2 (Homo sapiens, UniProt P49137). The experiment is described as follows: Determination of MK-2 IC50 (HSP-peptide phosphorylation, anion exchange resin capture assay). It is filed as biochemical. Here is the method: The phosphorylation of HSP-peptide ([…]) by MAPKAPK2 was measured using an anion exchange resin capture assay method. […] The reaction was terminated and [γ^33P]ATP was removed from solution by the addition of 150 μl of AG 1×8 ion exchange resin in 900 mM sodium formate pH 3.0. A 50 μl aliquot of head volume was removed from the quenched reaction mixture and added to a 96-well plate, 150 μl of Microscint-40 (Packard) was added and the amount of phosphorylated-peptide was determined. Allow the Microscint to sit in the plates for 60 minutes prior to counting.
Chain of Recombinant MAPKAPK2 (P49137 whole entry, species assumed): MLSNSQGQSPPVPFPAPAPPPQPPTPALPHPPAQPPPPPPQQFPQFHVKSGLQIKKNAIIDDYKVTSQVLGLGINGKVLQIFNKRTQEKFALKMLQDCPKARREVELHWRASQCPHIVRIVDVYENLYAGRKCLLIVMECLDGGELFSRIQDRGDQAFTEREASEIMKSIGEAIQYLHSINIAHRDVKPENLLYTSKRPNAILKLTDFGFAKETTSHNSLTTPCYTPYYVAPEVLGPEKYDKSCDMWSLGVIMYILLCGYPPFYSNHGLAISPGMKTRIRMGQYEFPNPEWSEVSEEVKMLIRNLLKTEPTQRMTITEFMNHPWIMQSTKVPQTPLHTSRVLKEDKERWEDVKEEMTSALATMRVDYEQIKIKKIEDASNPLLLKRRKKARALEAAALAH
Compounds are evaluated as potential inhibitors of the MK2 kinase by measuring their effects on MK2 phosphorylation of the peptide substrate. Compounds may be screened initially at two concentrations prior to determination of IC50 values. Screening results are expressed as percent inhibition at the concentrations of compound tested. For IC50 value determinations, compounds are tested at six concentrations in ten-fold serial dilutions with each concentration tested in triplicate. Results are expressed as IC50 values in micromolar. The assay is performed at a final concentration of 2% DMSO.

Where [1] appears, read: MK-2 Avg. IC50, Table I, aminocyanopyridine MK-2 inhibitors.
Where [2] appears, read: MK-2 Avg. IC50, Table 2, tricyclic aminocyanopyridine MK-2 inhibitors.

Structures are written as SMILES.

One may read the IC50 as the concentration at which inhibition is half-maximal. Turning to `Cn1ncc2c1CCc1c-2nc(N)c(C#N)c1-c1ccco1` [Example 57], under setting [1], the IC50 was found to be 28.3 µM. Turning to `N#Cc1c(N)nc2c(c1N)Cc1cccc(F)c1S2` [Example 57], the IC50 under setting [2] came out at 42.2 µM.

`COc1ccc2c(c1)Cc1c(nc(N)c(C#N)c1N)O2` [Example 58]: the half-inhibitory concentration (IC50) under setting [2] was 43 µM.

Turning to `N#Cc1c(-c2ccccc2F)cc(-c2ccc[nH]2)nc1N` [Example 58], the IC50 under setting [1] was determined as 29.3 µM. On the same count and under the same terms, the same measure for `CC1Cc2n[nH]cc2-c2nc(N)c(C#N)c(-c3ccco3)c21` (stereo not shown) [Example 59]: 31.3 µM. `N#Cc1c(N)nc2c(c1N)Cc1cccc(OCCN3CCCC3)c1O2` [Example 59]: the IC50 under setting [2] worked out at 45.2 µM. On to `Cn1ccc(-c2cc(-c3ccco3)c(C#N)c(N)n2)c1` [Example 60], for which the IC50 under setting [1] came out at 32.1 µM. As for `N#Cc1c(N)nc2c(c1N)Cc1cc([N+](=O)[O-])ccc1O2` [Example 60], under setting [2], the IC50 was 62.2 µM. Regarding `CC(=O)Nc1ccc(-c2c(C#N)c(N)nc3c2CCc2[nH]ncc2-3)cc1` [Example 62], the half-inhibitory concentration (IC50) under setting [1] amounted to 35.9 µM. For the molecule `N#Cc1c(N)nc2c(c1N)Cc1cccc(OCC(=O)O)c1O2` [Example 62], under setting [2], the IC50 worked out at 72.2 µM. On to `COc1cc2c(cc1OC)Oc1nc(N)c(C#N)c(NCCN(C)C)c1C2` [Example 63], for which the IC50 under setting [2] came out at 79.1 µM. In the case of `COc1ccc(Nc2c(C#N)c(N)nc3c2CC(C(F)(F)F)O3)cc1` (stereo not shown) [Example 63], the IC50 under setting [1] is 36.4 µM.

For `CC(C)(C)NS(=O)(=O)c1ccc(-c2cc(-c3ccco3)c(C#N)c(N)n2)cc1` [Example 64], under setting [1], the IC50 is 36.4 µM. For the molecule `N#Cc1c(N)nc2c(c1N)Cc1cc([N+](=O)[O-])ccc1S2(=O)=O` [Example 64], the IC50 under setting [2] stood at 80.8 µM. As to `CCC1Cc2c(nc(N)c(C#N)c2N)O1` (stereo not shown) [Example 65], the concentration for half-maximal inhibition (IC50) under setting [1] amounted to 37.9 µM.

With `N#Cc1c(N)nc2c(c1N)Cc1cc(-c3ccccc3)ccc1O2` [Example 65], the IC50 under setting [2] was 83.8 µM.

Turning to `Cc1cc(Cl)cc2c1Oc1nc(N)c(C#N)c(N)c1C2` [Example 66], the IC50 under setting [2] was 136 µM. Turning to `N#Cc1c(-c2ccco2)cc(-c2ccncc2)nc1N` [Example 66], under setting [1], the IC50 was determined as 39.9 µM. For the molecule `CSc1cc(N)c(C#N)c(N)n1` [Example 67], under setting [1], the IC50 amounted to 41.6 µM.

As for `CCNc1nc2c(c(NCC)c1C#N)Cc1ccc(OCC)cc1O2` [Example 68], under setting [2], the IC50 stood at 148 µM. Consider `N#Cc1c(N)nc2c(c1-c1cccc(C(=O)O)c1)CCc1[nH]ncc1-2` [Example 68], for which the IC50 under setting [1] worked out at 41.7 µM. For the molecule `COc1ccc2c(c1)Oc1nc(N)c(C#N)c(N)c1C2c1ccccc1F` (stereo not shown) [Example 69], the IC50 under setting [2] came to 151 µM. Take `N#Cc1c(-c2cnc[nH]2)cc(-c2ccc(Cl)cc2)nc1N` [Example 69]: under setting [1], the IC50 turned out to be 42.9 µM.

Take `N#Cc1c(N)nc2c(c1-c1cccc3c1OCO3)CCc1[nH]ncc1-2` [Example 70]: under setting [1], the IC50 was determined as 43.2 µM.

For the molecule `N#Cc1c(N)nc2c(c1N)Cc1cccc(OCCO)c1O2` [Example 70], under setting [2], the IC50 is 154 µM.

As for `CC1Cc2c(nc(N)c(C#N)c2N)O1` (stereo not shown) [Example 71], the IC50 under setting [1] came out at 44.1 µM. With `N#Cc1c(N)nc2c(c1N)Cc1cccc(OCCN)c1O2` [Example 71], the IC50 under setting [2] is 161 µM. On to `CS(=O)(=O)c1ccc(-c2cc(-c3cnc[nH]3)c(C#N)c(N)n2)cc1` [Example 72], for which the IC50 under setting [1] amounted to 45.3 µM. Take `N#Cc1c(N)nc2ccccc2c1N` [Example 73]: the IC50 under setting [1] worked out at 45.5 µM. Consider `N#Cc1c(N)nc2c(c1-c1ccco1)CCc1cc(N)ccc1-2` [Example 74], for which the IC50 under setting [1] came out at 46.8 µM. Consider `N#Cc1c(-c2ccco2)cc(-c2ccco2)nc1N` [Example 75], for which the IC50 under setting [1] amounted to 47.6 µM. For the molecule `N#Cc1c(-c2c[nH]c(C(=O)O)c2)cc(-c2ccco2)nc1N` [Example 76], the IC50 under setting [1] was 48.7 µM. For `CCCCC1Cc2c(nc(N)c(C#N)c2N)O1` (stereo not shown) [Example 77], the concentration for half-maximal inhibition (IC50) under setting [1] turned out to be 49.1 µM. On to `CCOC(=O)c1ccc(-c2cc(-c3cnc[nH]3)c(C#N)c(N)n2)cc1` [Example 78], for which, under setting [1], the IC50 came out at 49.1 µM.

For the molecule `COc1cc(N)c(C#N)c(N)n1` [Example 79], the IC50 under setting [1] stood at 50.9 µM. On the same count and under the same terms, the same measure for `N#Cc1ccc(-c2c(C#N)c(N)nc3c2CCc2[nH]ncc2-3)cc1` [Example 81]: 52.1 µM. Consider `Cn1cccc1-c1cc(-c2ccco2)c(C#N)c(N)n1` [Example 83], for which, under setting [1], the IC50 worked out at 54.4 µM. Regarding `N#Cc1c(-c2ccc(Oc3ccccc3)cc2)cc(-c2ccco2)nc1N` [Example 85], the IC50 under setting [1] came out at 59.3 µM.

Consider `N#Cc1c(N)nc2c(c1-c1cccnc1)CCc1n[nH]cc1-2` [Example 86], for which the IC50 under setting [1] stood at 62.5 µM. Regarding `N#Cc1c(N)nc(SCC(=O)c2ccc(Cl)cc2)c(C#N)c1-c1ccco1` [Example 87], the IC50 under setting [1] worked out at 63.3 µM. Take `CC(C)(C)NS(=O)(=O)c1ccc(-c2cc(-c3ccccc3)c(C#N)c(N)n2)cc1` [Example 90]: the IC50 under setting [1] was 68 µM. On the same count and under the same terms, in the case of `COc1ccnc(N)c1C#N` [Example 91] it was 69.6 µM; in that of `N#Cc1c(-c2ccc(C(=O)O)cc2)cc(-c2ccco2)nc1N` [Example 92], 59.8 µM. Turning to `COc1ccc(OCC2Cc3c(nc(N)c(C#N)c3N)O2)cc1` (stereo not shown) [Example 93], the IC50 under setting [1] was 69.8 µM. With `COc1ccc(-c2cc(-c3ccccc3F)c(C#N)c(N)n2)cc1` [Example 94], the IC50 under setting [1] came to 70.4 µM. Regarding `CC(C)(C)NS(=O)(=O)c1ccc(-c2cc(-c3ccccc3F)c(C#N)c(N)n2)cc1` [Example 95], under setting [1], the IC50 was 71.5 µM. Still for that read-out and setting: in the case of `N#Cc1c(N)nc2c(c1N)Cc1cccc(OCC(=O)O)c1O2` [Example 96] it was 72.2 µM; in that of `N#Cc1ccc(-c2ccco2)nc1N` [Example 98], 77.5 µM; in that of `N#Cc1c(N)nc2c(c1-c1ccco1)CCc1c(O)cccc1-2` [Example 101], 82.6 µM. Turning to `N#Cc1c(-c2ccco2)cc(-c2c[nH]c3ccccc23)nc1N` [Example 102], under setting [1], the IC50 came to 87.1 µM. With `N#Cc1c(N)nc2c(c1-c1ccncc1)CCc1n[nH]cc1-2` [Example 103], the 50% inhibitory concentration (IC50) under setting [1] amounted to 94.3 µM. For the molecule `N#Cc1c(-c2cccc(F)c2)cc(-c2ccc(O)cc2)nc1N` [Example 104], under setting [1], the IC50 came to 96 µM. On to `N#Cc1c(N)nc2c(c1-c1ccccc1OC(F)F)CCc1[nH]ncc1-2` [Example 105], for which, under setting [1], the IC50 was 96.1 µM. As for `N#Cc1c(-c2ccco2)cc(-c2ccsc2)nc1N` [Example 106], under setting [1], the IC50 amounted to 97.3 µM.

For the molecule `COc1ccc(-c2cc(-c3cccc(F)c3)c(C#N)c(N)n2)cc1` [Example 107], the IC50 under setting [1] worked out at 97.3 µM. Take `N#Cc1c(-c2ccccc2B(O)O)cc(-c2ccco2)nc1N` [Example 108]: the IC50 under setting [1] was found to be 99.6 µM. On to `CCCc1nc(N)c(C#N)c(N)c1C#N` [Example 109], for which the half-maximal inhibitory concentration (IC50) under setting [1] amounted to 99.8 µM. `C#CCOCC1Cc2c(nc(N)c(C#N)c2N)O1` (stereo not shown) [Example 110]: the 50% inhibitory concentration (IC50) under setting [1] amounted to 105 µM. Regarding `N#Cc1c(N)nc2c(c1N)CC(CO)O2` (stereo not shown) [Example 111], the IC50 under setting [1] was found to be 106 µM.

Take `N#Cc1c(-c2ccc(C(F)(F)F)cc2)cc(-c2ccco2)nc1N` [Example 112]: the IC50 under setting [1] was 107 µM. With `CC1(C)Cc2n[nH]cc2-c2nc(N)c(C#N)c(-c3ccco3)c21` [Example 114], the IC50 under setting [1] stood at 109 µM. For `N#Cc1c(-c2ccccc2F)cc(-c2ccco2)nc1NCC(=O)O` [Example 115], the IC50 under setting [1] is 114 µM. In the case of `C=CCOCC1Cc2c(nc(N)c(C#N)c2N)O1` (stereo not shown) [Example 116], the IC50 under setting [1] stood at 118 µM.

Regarding `CC1Cc2c(nc(N)c(C#N)c2-c2ccco2)-c2ccccc21` (stereo not shown) [Example 117], the IC50 under setting [1] was 119 µM.

The record behind these values is US20040127519A1 (Pharmacia Corporation, priority 2002, published 2004).
